In patent US20250346593A1, “IMIDAZO(1,2-1)PYRIDINE DERIVATIVES AS RIPK2 INHIBITORS” (Interline Therapeutics, Inc., priority 2022, published 2025) one finds IC50 data, which are given here for 24 compounds.

Like-named read-outs stand apart in the source and are kept apart here.

Experiment [1] relates to NF-κB pathway (SEAP) in THP1-Dual cells. As to the kind of experiment: THP-1 Dual cell SEAP assay (L18-MDP stimulated). The class given is cell-based. The conditions noted are these: Homo sapiens, THP1-Dual, read-out: NFkB THP1 IC50.
Experiment [2] concerns the target GST-RIPK2 fusion protein (human RIPK2 amino acids 1-310) (Homo sapiens (Human), UniProt O43353). As to the kind of experiment: RIPK2 binding competition assay (TR-FRET, Tracer 199). (In general: TR-FRET usually uses a lanthanide donor and a delayed reading to cut background.)
The mark [3] stands for this setting: read-out: RIPK2 IC50, RIPK2 binding competition assay.

Sequence of GST-RIPK2 fusion protein (human RIPK2 amino acids 1-310) (O43353 1-310): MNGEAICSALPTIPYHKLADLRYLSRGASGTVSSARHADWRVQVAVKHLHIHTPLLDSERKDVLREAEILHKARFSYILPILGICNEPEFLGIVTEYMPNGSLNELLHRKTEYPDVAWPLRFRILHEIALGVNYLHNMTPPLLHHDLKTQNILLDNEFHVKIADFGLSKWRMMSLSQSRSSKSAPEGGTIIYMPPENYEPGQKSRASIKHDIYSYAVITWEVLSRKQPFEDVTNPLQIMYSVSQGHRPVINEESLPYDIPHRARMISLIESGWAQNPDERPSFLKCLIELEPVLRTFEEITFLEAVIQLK

Take `COc1cc2ncc(-c3ccc(N)c(OC)c3F)n2cc1S(=O)(=O)C(C)(C)C` [Example 76, 4-(6-(tert-butylsulfonyl)-7-methoxyimidazo[1,2-a]pyridin-3-yl)-3-fluoro-2-methoxyaniline]: the IC50 (in general, the concentration needed to halve the response being measured) in experiment [1] is above 1000 nM; in experiment [2] (setting [3]) it was above 20 nM.

Turning to `COc1cc2ncc(-c3ccc(N(C)C)nc3F)n2cc1S(=O)(=O)C(C)(C)C` [Example 77, 5-(6-(tert-butylsulfonyl)-7-methoxyimidazo[1,2-a]pyridin-3-yl)-6-fluoro-N,N-dimethylpyridin-2-amine], the concentration for half-maximal inhibition (IC50) was above 1000 nM in experiment [1] and above 20 nM in experiment [2] (setting [3]).

For `COc1cc(N)ncc1-c1cnc2cc(OC)c(S(=O)(=O)C(C)(C)C)cn12` [Example 78, 5-(6-(tert-butylsulfonyl)-7-methoxyimidazo[1,2-a]pyridin-3-yl)-4-methoxypyridin-2-amine], the concentration for half-maximal inhibition (IC50) in experiment [1] was above 1000 nM; in experiment [2] (setting [3]) it was above 20 nM.

For the compound `COc1cc2ncc(-c3ccc(N)nc3OC)n2cc1S(=O)(=O)C(C)(C)C` [Example 79, 5-(6-(tert-butylsulfonyl)-7-methoxyimidazo[1,2-a]pyridin-3-yl)-6-methoxypyridin-2-amine], the results for the IC50 in experiment [1] and in experiment [2] (setting [3]) were above 1000 nM and above 20 nM, respectively.

As to `COc1cc2ncc(-c3cc(C#N)c(N)cc3F)n2cc1S(=O)(=O)C(C)(C)C` [Example 80, 2-amino-5-(6-(tert-butylsulfonyl)-7-methoxyimidazo[1,2-a]pyridin-3-yl)-4-fluorobenzonitrile], the IC50 in experiment [1] was 250 to 1000 nM; in experiment [2], 2.5 to 20 nM.

Consider `COc1cc2ncc(-c3cc(F)c(N)cc3F)n2cc1S(=O)(=O)C(C)(C)C` [Example 81, 4-(6-(tert-butylsulfonyl)-7-methoxyimidazo[1,2-a]pyridin-3-yl)-2,5-difluoroaniline], for which the IC50 was in the range of 250 to 1000 nM in experiment [1] and 2.5 to 20 nM in experiment [2].

With `COc1cc2ncc(-c3cc(F)c(N)nc3F)n2cc1S(=O)(=O)C(C)(C)C` [Example 82, 5-(6-(tert-butylsulfonyl)-7-methoxyimidazo[1,2-a]pyridin-3-yl)-3,6-difluoropyridin-2-amine], the 50% inhibitory concentration (IC50) was 250 to 1000 nM in experiment [1] and 2.5 to 20 nM in experiment [2].

As to `COc1cc2ncc(-c3ccc(N)c(F)c3F)n2cc1S(=O)(=O)C(C)(C)C` [Example 83, 4-(6-(tert-butylsulfonyl)-7-methoxyimidazo[1,2-a]pyridin-3-yl)-2,3-difluoroaniline], the IC50 in experiment [1] was above 1000 nM; in experiment [2] (setting [3]), above 20 nM.

Take `COc1cc2ncc(-c3cnc(N)c(C4CC4)c3)n2cc1S(=O)(=O)C(C)(C)C` [Example 84, 5-(6-(tert-butylsulfonyl)-7-methoxyimidazo[1,2-a]pyridin-3-yl)-3-cyclopropylpyridin-2-amine]: the values for the concentration for half-maximal inhibition (IC50) in experiment [1] and in experiment [2] (setting [3]) were above 1000 nM and above 20 nM, respectively.

Take `COc1cc2ncc(-c3ccc(N)c(Cl)c3)n2cc1S(=O)(=O)C(C)(C)C` [Example 85, 4-(6-(tert-butylsulfonyl)-7-methoxyimidazo[1,2-a]pyridin-3-yl)-2-chloroaniline]: the figures for the IC50 in experiment [1] and in experiment [2] were 250 to 1000 nM and 2.5 to 20 nM, respectively.

As for `COc1cc2ncc(-c3ccc(N)c(Cl)c3F)n2cc1S(=O)(=O)C(C)(C)C` [Example 86, 4-(6-(tert-butylsulfonyl)-7-methoxyimidazo[1,2-a]pyridin-3-yl)-2-chloro-3-fluoroaniline], the IC50 in experiment [1] was above 1000 nM; in experiment [2], 2.5 to 20 nM.

Regarding `COc1cc(-c2cnc3cc(OC)c(S(=O)(=O)C(C)(C)C)cn23)ccc1N` [Example 87, 4-(6-(tert-butylsulfonyl)-7-methoxyimidazo[1,2-a]pyridin-3-yl)-2-methoxyaniline], the IC50 in experiment [1] was above 1000 nM; in experiment [2], 2.5 to 20 nM.

Turning to `COc1cc2ncc(-c3cnc(N)c(OC(F)(F)F)c3)n2cc1S(=O)(=O)C(C)(C)C` [Example 88, 5-(6-(tert-butylsulfonyl)-7-methoxyimidazo[1,2-a]pyridin-3-yl)-3-(trifluoromethoxy) pyridin-2-amine], the IC50 in experiment [1] was above 1000 nM; in experiment [2] (setting [3]) it was above 20 nM.

Turning to `COc1cc2ncc(-c3ccc(N)c(OC(F)(F)F)c3)n2cc1S(=O)(=O)C(C)(C)C` [Example 89, 4-(6-(tert-butylsulfonyl)-7-methoxyimidazo[1,2-a]pyridin-3-yl)-2-(trifluoromethoxy)aniline], the IC50 in experiment [1] was above 1000 nM; in experiment [2], 2.5 to 20 nM.

`COc1cc(-c2cnc3cc(OC)c(S(=O)(=O)C(C)(C)C)cn23)c(F)cc1N` [Example 90, 4-(6-(tert-butylsulfonyl)-7-methoxyimidazo[1,2-a]pyridin-3-yl)-5-fluoro-2-methoxyaniline]: the IC50 in experiment [1] lay in the range of 250 to 1000 nM; in experiment [2], 2.5 to 20 nM.

With `COc1cc2ncc(-c3ccc(N)c(C#N)c3F)n2cc1S(=O)(=O)C(C)(C)C` [Example 91, 6-amino-3-(6-(tert-butylsulfonyl)-7-methoxyimidazo[1,2-a]pyridin-3-yl)-2-fluorobenzonitrile], the IC50 in experiment [1] is above 1000 nM; in experiment [2], 2.5 to 20 nM.

Take `COc1cc2ncc(-c3cnc(N)c(CO)c3)n2cc1S(=O)(=O)C(C)(C)C` [Example 92, (2-amino-5-(6-(tert-butylsulfonyl)-7-methoxyimidazo[1,2-a]pyridin-3-yl)pyridin-3-yl)methanol]: the figures for the IC50 in experiment [1] and in experiment [2] (setting [3]) were above 1000 nM and above 20 nM, respectively.

Consider `COc1cc2ncc(-c3cnc(N)nc3)n2cc1S(=O)(=O)C(C)(C)C` [Example 93, 5-(6-(tert-butylsulfonyl)-7-methoxyimidazo[1,2-a]pyridin-3-yl)pyrimidin-2-amine], for which the values for the IC50 in experiment [1] and in experiment [2] (setting [3]) were above 1000 nM and above 20 nM, respectively.

As for `CNc1ncc(-c2cnc3cc(OC)c(S(=O)(=O)C(C)(C)C)cn23)cc1F` [Example 94, 5-(6-(tert-butylsulfonyl)-7-methoxyimidazo[1,2-a]pyridin-3-yl)-3-fluoro-N-methylpyridin-2-amine], the IC50 in experiment [1] is above 1000 nM; in experiment [2] (setting [3]) it was above 20 nM.

Turning to `COc1cn2ncc(-c3ccc(N)c(C#N)c3)c2cc1S(=O)(=O)C(C)(C)C` [Example 95, 2-amino-5-(5-(tert-butylsulfonyl)-6-methoxypyrazolo[1,5-a]pyridin-3-yl)benzonitrile], the IC50 lay in the range of 250 to 1000 nM in experiment [1] and 2.5 to 20 nM in experiment [2].

In the case of `COc1cc2ncc(-c3cc(C)c(N)nc3F)n2cc1S(=O)(=O)C(C)(C)C` [Example 96, 5-(6-(tert-butylsulfonyl)-7-methoxyimidazo[1,2-a]pyridin-3-yl)-6-fluoro-3-methylpyridin-2-amine], the IC50 lay within 250 to 1000 nM in experiment [1] and 2.5 to 20 nM in experiment [2].

Regarding `COc1cn2ncc(-c3cnc(N)c(F)c3)c2cc1S(=O)(=O)C(C)(C)C` [Example 97, 5-(5-(tert-butylsulfonyl)-6-methoxypyrazolo[1,5-a]pyridin-3-yl)-3-fluoropyridin-2-amine], the IC50 in experiment [1] was 250 to 1000 nM; in experiment [2], 2.5 to 20 nM.

Consider `COc1cc2ncc(-c3cnc(N)c(C(F)F)c3)n2cc1S(=O)(=O)C(C)(C)C` [Example 98, 5-(6-(tert-butylsulfonyl)-7-methoxyimidazo[1,2-a]pyridin-3-yl)-3-(difluoromethyl)pyridin-2-amine], for which the IC50 in experiment [1] was above 1000 nM; in experiment [2] (setting [3]), above 20 nM.

Turning to `COc1cc2ncc(-c3ccc(N)nc3Cl)n2cc1S(=O)(=O)C(C)(C)C` [Example 99, 5-(6-(tert-butylsulfonyl)-7-methoxyimidazo[1,2-a]pyridin-3-yl)-6-chloropyridin-2-amine], the results for the IC50 in experiment [1] and in experiment [2] (setting [3]) were above 1000 nM and above 20 nM, respectively.
